Assay type in all cases: cell-based
For experiment [1], the system named is E. aerogenes ATCC #13048. Briefly: Minimum inhibitory concentration testing (microbroth dilution) and synergy index. The note with it: 96 well microbroth dilution, MHB, 24 hours of incubation. As for the experimental part: (§1) MICs were determined via microbroth dilution using the following specific test parameters:
(§2) Biocide dilutions were performed in 2-fold increments for each assay.
(§3) Synergy index (SI) scores were calculated according to the mass action equation below: […]
(§4) S.I.[MIC[A]in-blend/MIC[A]alone]+[MIC[B]in-blend/MIC[B]alone]
(§5) Combinations of ingredients were determined to be synergistic (S.I.<0.5), additive (S.I.>0.5 to 1), indifferent (S.I.>1 to <2) or antagonistic (S.I.>2), as defined by EUCAST guidelines. See European Committee for Antimicrobial Susceptibility Testing (EUCAST) of the European Society of Clinical Microbiology and Infectious Diseases (ESCMID). EUCAST Definitive Document E.Def 1.2, May 2000: Terminology relating to methods for the determination of susceptibility of bacteria to antimicrobial agents, Clin. Microbiol. Infect. Off Publ. Eur. Soc. Clin. Microbiol. Infect. Dis. […] Microbiol.

Experiment [2] concerns E. coli ATCC #11229. Described as above. As to conditions: 96 well microbroth dilution, MHB, 24 hours of incubation. As for the experimental part:
as §1, §2, §3, §4, §5
In general terms: Broth dilution looks for growth in wells or tubes with falling amounts of substance.

Experiment [3] has as its system Microbacterium sp. Troy JZ13. The description is as above. The note with it: 96 well microbroth dilution, MHB, 24 hours of incubation. As for the experimental part:
as §1, §2, §3, §4, §5

The test system of experiment [4] is P. aeruginosa ATCC #10145. Described as above. As for the experimental part: as §1, §2, §3, §4, §5
For experiment [5], the system named is Pseudomonas sp. Troy JZ103. Described as above. The note with it: 96 well microbroth dilution, MHB, 24 hours of incubation. As for the experimental part:
as §1, §2, §3, §4, §5

Experiment [6] relates to S. aureus ATCC #6538. The description is as above. As to conditions: 96 well microbroth dilution, MHB, 24 hours of incubation. As for the experimental part:
as §1, §2, §3, §4, §5

Experiment [7] deals with Bacillus sp. Troy JZ14. The description is as above. The note with it: 96 well microbroth dilution, MHB, 24 hours of incubation. As for the experimental part:
as §1
(§6) Necessary organism dilutions via OD600 were calculated based on OD600 of 1.0 being equivalent to 8×10^8 CFU/mL. Biocide dilutions were performed in 2-fold increments for each assay.
as §3, §4
(§7) Combinations of ingredients were determined to be synergistic (S.I.<0.5), additive (S.I.>0.5 to 1), indifferent (S.I.>1 to <2) or antagonistic (S.I.>2), as defined by EUCAST guidelines. See European Committee for Antimicrobial Susceptibility Testing (EUCAST) of the European Society of Clinical Microbiology and Infectious Diseases (ESCMID). EUCAST Definitive Document E.Def 1.2, May 2000: Terminology relating to methods for the determination of susceptibility of bacteria to antimicrobial agents, Clin. Microbiol. Infect. Off Publ. Eur. Soc. Clin. Microbiol. Infect. Dis. 6, 503-508 (2000); Helander I. M., Mattila-Sandholm T., Fluorometric assessment of gram-negative bacterial permeabilization, J. Appl. Microbiol. 88:213-219 (2000).

Experiment [8] deals with Burkholderia sp. Troy JZ2. Described as above. As for the experimental part: as §1, §6, §3, §4, §7
The test system of experiment [9] is Pseudomonas aeruginosa (ATCC #10145). Briefly: Kill curve. The note with it: for Kill curve CFU/mL: 0.2%. As for the experimental part: Overnight cultures of Pseudomonas aeruginosa (ATCC #10145) growing in Tryptic Soy Broth were diluted to OD600=0.7 in Mueller Hinton Broth containing the indicated level of test compound. Samples containing IPBC were dosed with Polyphase PW40 (40% IPBC). Samples containing ZnO were dosed from a 50% ZnO dispersion (“1678-54”). Time points were collected by adding 1 mL of the sample into 9 mL of Dey-Engley Neutralizing Broth and performing a serial dilution in 1× Butterfield's Phosphate Buffer. Counts were obtained from pour plates in Tryptic Soy Agar after overnight incubation at 35° C.

Experiment [10] relates to bacterial consortium: Alcaligenes faecalis (ATCC #25094), Enterobacter aerogenes (ATCC #13048), Escherichia coli (ATCC #11229), Pseudomonas aeruginosa (ATCC …). Description: Bacterial challenge testing (standard). As to conditions: for Improvement in the bacterial resistance of paint containing IPBC/ZnO: paint challenge testing (Table A9). As for the experimental part:
Bacterial and fungal challenge testing was performed following Troy's standard challenge test procedure SOP MI-07. […] Where indicated, additional bacterial organisms were added to the inoculum such that each organism in the inoculum provided equal CFU. […] Fungal consortia were prepared on Malt Agar slants and diluted to 10^6 spores/mL using a hemocytometer to count before use. Each mixture was prepared shortly before each inoculation. Inoculations were performed by adding 0.5 mL to 50 g of the indicated test sample, giving either ˜10^6 CFU/g of bacteria or ˜10^4 spores/g of fungi per challenge. Viability readings were performed at the indicated intervals following each challenge by applying a small amount of the test sample onto PCA (for bacteria) or Malt Agar (for fungus). Bacterial plates were then incubated at 32° C. for 3-5 days, and Malt Agar plates were incubated for 1 week at 28° C. before reading. Viability plates were evaluated with a semi-quantitative scale. This scale estimates the approximate CFU/g by visual assessment of the colony density along the streak lines. Readings are recorded as the average of two duplicate semi-quantitative readings from “0” to “4.” Samples were mixed before every viability reading and after every inoculation.
(§8) Challenge test scoring was done by the weighted sum of squares for each of the twelve data points collected for each test sample. The weighting was done proportional to the streak day, with day 1 weighted at 10%, day 2 weighted at 20%, and day 3 weighted at 70%. The sum of all 12 values is then taken and divided by the score of the unprotected sample to achieve the total growth score. The reported “weighted performance” score is 1 minus the growth score.

The test system of experiment [11] is bacterial consortium: Alcaligenes faecalis, Enterobacter aerogenes, Escherichia coli, Pseudomonas aeruginosa, Staphylococcus aureus, Microbacterium …. Description: Bacterial challenge testing (industrial strength).
Description: Where industrial strength inoculations are indicated, bacterial challenge testing organisms were Alcaligenes faecalis (ATCC #25094), Enterobacter aerogenes (ATCC #13048), Escherichia coli (ATCC #11229), Pseudomonas aeruginosa (ATCC #10145), Staphylococcus aureus (ATCC #6538), Microbacterium paraoxydans (Troy Isolate), Burkholderia cenocepacia (Troy Isolate), Citrobacter werkmanii (Troy Isolate), and Acinetobacter sp. (Troy Isolate). All bacteria were blended from separate overnight cultures grown in Tryptic Soy Broth (TSB) and mixed at equal CFU via OD600 measurements, then diluted to OD600=7 (˜10^9 CFU/mL) to create the final bacterial consortium. Each mixture was prepared shortly before each inoculation. Inoculations were performed by adding […] to 50 g of the indicated test sample to give ˜10^7 CFU/g per inoculation. Viability readings were performed at the indicated intervals following each challenge by applying a small amount of the test sample onto PCA. Plates were then incubated at 32° C. for 3-5 days before being evaluated with a semi-quantitative scale. This scale estimates the approximate CFU/g by visual assessment of the colony density along the streak lines. Readings are recorded as the average of two duplicate semi-quantitative readings from “0” to “4.” Samples were mixed before every viability reading and after every inoculation.
as §8

The test system of experiment [12] is Pseudomonas aeruginosa (ATCC #10145). Description: NPN uptake assay (membrane permeability). As to conditions: 1% w/v solutions. As for the experimental part:
The NPN uptake assay was performed roughly as previously described. See Helander I. M., Mattila-Sandholm T., Fluorometric assessment of gram-negative bacterial permeabilization, J. Appl. Microbiol. […] Next, the cells were centrifuged (10,000 g, 5 minutes) washed twice with assay buffer (5 mM HEPES-KOH, 5 mM glucose, pH 7.2) and resuspended in assay buffer to OD600=1. 100 microliters of washed cells in assay buffer was then mixed with 100 microliters of assay buffer containing 20 μM NPN in a 96-well optical bottom black plate (Thermo). Two microliters of the test substances were then added, briefly mixed, and then placed in a plate reader to monitor fluorescence (excitation 350 nm, emission 420 nm) at one minute intervals for 10 minutes. Controls containing no cells or water-only were included in the assay. NPN uptake was calculated using the formula below at each time point and averaged over all time-points and three replicates.

For experiment [13] the test system is unchanged. Description: Growth curves (OD600). As for the experimental part:
To generate growth curves, overnight cultures of Pseudomonas aeruginosa (ATCC #10145) from Plate Count Agar were lifted and resuspended in dH2O and adjusted to OD600=0.01 with sterile Mueller Hinton Broth (MHB). This culture was distributed into wells of an uncovered 96-well plate with the indicated biocides. The OD600 was then measured initially and then every 30′ for 16 hours at 37° C. with constant double orbital shaking. Due to the opacity of the samples dosed with some test compounds, the curves were generated by background subtracting from wells containing sterile MHB and then subtracted from their initial (t=0) measurement.

The mark [14] stands for this setting: Joint Compound, lowest concentration free of detectable bacterial growth 7 days following the 4th inoculation.
[15] abbreviates: Interior Paint #1, lowest concentration free of detectable bacterial growth 7 days following the 4th inoculation.
[16] abbreviates: 96 well microbroth dilution, MHB, 24 hours of incubation.

Values joined by “and” are separate entries in the source; they are usually repeats but may differ in a detail not shown here. Equal values may be shown once. Read-outs that look alike come from different tables or passages of the source. Residues, ends and D or L forms follow the SMILES beside them. *: point of attachment. βNA = c1ccc2cc(N*)ccc2c1

In the case of `CCCCC(O)CO` (stereo not shown) [1,2-hexanediol], the MIC in experiment [1] (Klebsiella aerogenes, ATCC13048, read-out: MIC) came out at 10000 µg/mL; in [2] (Escherichia coli, ATCC11229, read-out: MIC) it was 6000 µg/mL; in experiment [3] (read-out: MIC), 6000 µg/mL; in experiment [4] (Pseudomonas aeruginosa, ATCC10145, 24 h), 6000 µg/mL; in experiment [5] (Pseudomonas, read-out: MIC), 5000 µg/mL; in experiment [6] (Staphylococcus aureus, ATCC6538, read-out: MIC), 24 mg/mL. Further, the MIC was 10000 µg/mL in [7] (Bacillus, read-out: MIC) and 5000 µg/mL in [8] (Burkholderia, 24 h). In experiment [9] (1,2-hexanediol added to IPBC/ZnO (FIG. 5)), the “Killing of Pseudomonas (kill curve)” value is listed as “fully capable of killing Pseudomonas”. Also, the figures for the “Pass Level” value in experiment [10] (setting [14]) and in experiment [11] (setting [15]) were 1.2 % w/w and “Not Effective”, respectively. Further, the figures for the “Pass Level (ppm a.i.)” value in experiment [10] (setting [14]) and in [11] (setting [15]) were 11,880 ppm a.i and > 12,000 ppm a.i, respectively.

Turning to `CCCCCCOCCOCCO` [Hexyl Carbitol], the MIC in experiment [2] is 11857 ppm; in experiment [3], 1482 ppm; in experiment [4] (setting [16]), 11856 ppm; in experiment [5] it was 5929 ppm; in experiment [6], 11857 ppm; in experiment [7], 4447 ppm. Further, the MIC in experiment [8] (setting [16]) worked out at 1853 ppm. Moreover, the “Membrane disruption potential against Pseudomonas (NPN assay)” value (shortened to “Membrane disruption potential”) in experiment [12] is “highest membrane disruption potential”. Moreover, in [10], the “Improvement in the bacterial resistance of paint containing IPBC/ZnO” value was “highly similar performance as 1,2-hexanediol”.

Turning to `CCCCCCOCCO` [Hexyl Cellosolve], the “Membrane disruption potential” value in experiment [12] is recorded as “highest membrane disruption potential”.

Regarding `[Cl-].[Cl-].[Mg+2]` [MgCl2], the Pseudomonas growth result in [13] (control, without PAβN (FIG. 1C)) was “no Pseudomonas inhibition”.

Regarding `N=C(N)NCCC[C@H](NC(=O)[C@@H](N)Cc1ccccc1)C(=O)Nc1ccc2ccccc2c1` [PAβN, phenylalanine-arginine beta-napthylamide] (H-Phe-Arg-βNA), the “Impact on Pseudomonas growth” value in experiment [13] (0.125-0.5 mM PAβN alone, 16 hours at 37° C.) was “minimal impact”.

Consider `CC(C)C(=O)OCC(C)(C)C(O)C(C)C` (stereo not shown) [Texanol], for which the “Membrane disruption potential” value in experiment [12] was “highest membrane disruption potential”.

`CC(=O)OCC(COC(C)=O)OC(C)=O` [Triacetin]: in [10], the “Improvement in the bacterial resistance of paint containing IPBC/ZnO” value was “some improvement”.

For the molecule `[O]=[Zn]` [ZnO, zinc oxide], the MIC in [1] is recorded as 2400 ppm; in experiment [2], 2400 ppm; in experiment [3], 3206 ppm; in experiment [4] (setting [16]), no less than 2400 ppm; in experiment [5], 3400 ppm; in [6], 250 ppm. Moreover, the figures for the MIC in experiment [7] and in experiment [8] (setting [16]) were 3212 ppm and 2000 ppm, respectively. In addition, the “Kill curve CFU/mL” value in experiment [9] (0 hrs) is 5.40E+06 CFU/mL and 7.00E+06 CFU/mL; in [9] (2 hrs), 7.10E+06 CFU/mL and 7.30E+06 CFU/mL; in experiment [9] (24 hrs), 1.33E+10 CFU/mL and 1.45E+10 CFU/mL; in experiment [9] (48 hrs), 4.90E+09 CFU/mL and 3.80E+09 CFU/mL. In experiment [11] (paint, 2.5% w/w (10,000 ppm), 7 days after challenge), the “Kill of the inoculum” value is given as “complete kill”.

The record behind these values is patent US20250338851A1, “Boosted IPBC for Wet-State Bacterial Control” (Troy Technology II, Inc., priority 2021, published 2025).
